Where two headings read alike, the source gives them in different places.
Legend:
MDA-MB-231 cells = assay: MTT assay for cell killing, breast cancer cell line MDA-MB-231; type: cell-based; details: for IC50: Homo sapiens, MDA-MB-231, MTT, 72h
Experimental: The cytotoxicity of the peptides on the prostate cancer derived cell lines DU145, LnCaP, and PC3, and the breast cancer derived cell line MDA-MB-231 was tested as previously described (Morgan et al. 2014 ibid), using the MTT (3-[4,5-dimethylthiazol-2-yl]-2,5-diphenyltetrazolium bromide) assay for metabolic activity. 7000-16000 cells, depending on the cell line, were seeded onto 96-well cell plate and treated with 5, 10, 20, 40 and 80 μM of each compound for 72h, DMSO alone (negative control) for 72 hr, or HTL001 ([…]; International patent application published as WO2017068353; positive control) for 2 h. After treatment, MTT at a final concentration of 0.5 mg/ml was added. Upon 4h incubation the formed formazan crystals were dissolved in DMSO and the optical density (OD) measured at 540 nm with a spectrofluorimeter. Percentage of cell survival was calculated as a ratio of the mean OD value of treated vs. untreated cells. Experiments were repeated 3 times and statistical analysis performed using Student's t-test. All cell lines were cultured in RPMI media with added 10% FBS, 1% sodium pyruvate and 1% L-Glutamine. They were all cultured in an incubator at 37° C., 5% CO2. The assay was repeated 3 times and the results are given as the mean IC50 for cell killing±standard deviation.
The molecules were tested for their ability to induce cell death using the breast cancer cell line MDA-MB-231, with the HOX/PBX interfering peptide HTL001 (WYKWMKKAARRRRRRRRR; International patent application published as WO2017068353) as a positive control and DMSO as a negative control. Percentage of cell survival was evaluated with the MTT assay after treatment with different concentrations ([…], 10, 20, 40 and 80 μM) of each compound for 72h. The IC50 was evaluated as the concentration of the compound that reduces % of cell survival by half.
MDA-MB-231 cells were treated with different concentrations of Example 2 dissolved in either DMSO or PEG/Tris HCl and MTT assay performed. Data are means±SEM of four independent experiments.

cFOS [1] = assay: cFOS expression in MDA-MB-231 cells (qRT-PCR); type: cell-based; details: for fold induction at 33 µM: Homo sapiens, qRT-PCR; for fold induction at 33 µM / cFos expression compared to untreated MDA-MB-231 cells: MDA-MB-231 cells, 2h, 33 μM
Experimental: MDA-MB-231 cells were seeded in 25 cm^2 plates and treated for 2h with 33 μM of each compound at 80% confluence. RNA was isolated using RNeasy Mini Kit-QIAGEN according to manufacturer's instructions and quantified with NanoDrop ND-1000. cDNA was generated from 1 μg of total RNA using High Capacity cDNA Reverse Transcription Kit in a 25 μl final reaction volume according to the manufacturer protocol. The expression of cFOS was quantified by qRT-PCR. Real-time PCR reactions were performed using 1:10 dilution (5 μl/well) of each cDNA added to TaqMan Universal PCR Master Mix and TaqMan Gene Expression Assay Hs00170630_m1 FOS. Amplification of glyceraldehyde 3-phosphate dehydrogenase (GAPDH) probe was performed as endogenous control. The comparative Ct method (ΔΔCt algorithm) was used for analysis. Independent experiments were performed in triplicates and repeated three times. Statistical analysis was performed with Student's t-test.
MDA MB 231 cells were treated for 4h with 4×IC50 Example 2 in PEG/Tris HCl. RNA was isolated and RT-PCR performed to detect expression of cFOS. Data are means±SEM of four independent experiments. Significance to PEG/Tris HCl: **p<0.01 (Ttest).

cFOS [2] = assay: cFOS expression in PC3 prostate cancer cells (RT-PCR); type: cell-based; details: 4h, 120 μM in PEG/Tris HCl
Experimental: (§1) PC3 cells were treated for 4h with 120 μM Example 2 in PEG/Tris HCl. RNA was isolated and RT-PCR performed to detect expression of cFOS and DUSP1. Data are means±SEM of three independent experiments. Significance to PEG/Tris HCl: **p<0.01, ***p<0.001 (Ttest).

cFOS [3] = assay: cFOS expression in DU145 prostate cancer cells (RT-PCR); type: cell-based; details: 4h, 120 μM in PEG/Tris HCl
Experimental: (§2) DU145 cells were treated for 4h with 120 μM Example 2 in PEG/Tris HCl. RNA was isolated and RT-PCR performed to detect expression of cFOS and DUSP1. Data are means±SEM of three independent experiments. *p<0.05 (Ttest).

DUSP1 [4] = assay: DUSP1 expression in DU145 prostate cancer cells (RT-PCR); type: cell-based; details: 4h, 120 μM in PEG/Tris HCl
Experimental: as §2

Solubility studies = type: physicochemical
Excerpt: Example 2 was solubilised in PEG400 and propylene glycol (PG).

DUSP1 [5] = assay: DUSP1 expression in PC3 prostate cancer cells (RT-PCR); type: cell-based; details: 4h, 120 μM in PEG/Tris HCl
Experimental: as §1

MDA-MB-231 tumour = assay: In vivo study, MDA-MB-231 tumour in Balb-c nude mice; details: 20 mg/Kg, IP, day 0, 3, 6, 9, 10 & 13
Experimental: MDA-MB-231 cells were injected subcutaneously into female or male Balb-c nude mice aged 6 to 12 weeks (Harlan, UK). When the tumour size reached 100 mm^3 mice were injected intratumouraly with Example 2 at the intervals shown on the graph. Mice were sacrificed when the tumour size reached 1000 mm^3 or at the end of the experiment (14 days).
Treatment of MDA-MB-231 tumour with Example 2 (ICT9119): Group 1—Untreated controls Group 2—10% DMSO/Oil solvent control, IP, day 0, 3, 6, 9, 10 & 13 Group 3—Example 2, 20 mg/Kg, IP, day 0, 3, 6, 9, 10 & 13

HOXB4/PBX2 dimers = target: T1, HOXB4/PBX2 dimers (Homo sapiens, UniProt P40425); assay: Cell based ELISA assay for HOX/PBX binding (HOXB4/PBX2 dimer assay); details: MDA-MB-231 cells treated with 10 μM for 4 hours; compared to negative control (DMSO); read-out: % inhibition of HOXB4/PBX2 dimer formation
T1 construct: endogenous in cells; host or cells: MDA-MB-231
T1 sequence (P40425 1-430): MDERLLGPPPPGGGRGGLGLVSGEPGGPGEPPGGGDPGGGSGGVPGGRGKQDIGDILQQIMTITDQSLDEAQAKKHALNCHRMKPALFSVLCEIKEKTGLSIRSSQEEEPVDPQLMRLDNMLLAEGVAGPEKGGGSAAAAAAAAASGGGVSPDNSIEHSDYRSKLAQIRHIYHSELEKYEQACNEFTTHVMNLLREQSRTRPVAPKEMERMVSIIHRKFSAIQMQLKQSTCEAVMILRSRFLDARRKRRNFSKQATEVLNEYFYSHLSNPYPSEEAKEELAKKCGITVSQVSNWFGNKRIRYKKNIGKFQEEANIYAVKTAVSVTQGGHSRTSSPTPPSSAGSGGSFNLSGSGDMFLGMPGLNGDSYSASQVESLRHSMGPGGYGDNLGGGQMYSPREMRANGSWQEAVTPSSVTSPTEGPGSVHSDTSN
Experimental: In order to directly assess the ability of each compound to disrupt HOX/PBX binding a cell-based assay system was developed that could allow the formation of HOX/PBX/DNA dimers. Cultured MDA-MB-231 cells were treated with 10 μM of each compound for 4 hours and then used to generate a cell lysate using a standard preparation method as described below. HOXB4/PBX2 dimers were then measured using an ELISA-based system as detailed in the table below. The values from this assay are expressed as % inhibition of dimer formation compared to a negative control (DMSO).
1. Collect approximately 5.0×10^7 cells by low-speed centrifugation at RT for 5 min. Carefully remove culture medium. 2. Wash the cellular debris (pellet) with PBS at RT, and collect by low-speed centrifugation. Carefully remove supernatant (total protein). 3. Add 1.0 ml of pre-cold RIPA buffer (or other appropriate buffer) with freshly added (Protease Inhibitors) and/or (Phosphatase Inhibitors). Gently resuspend cells in RIPA buffer with a pipet and incubate on ice for 30 min. 4. Further disrupt and homogenize cells by passing through a 21-gauge needle, dounce homogenization or sonication, taking care not to raise the temperature of the lysate. (Optional: Add 10 μl of 10 mg/ml PMSF stock) Incubate 30 min on ice. 5. Transfer to microcentrifuge tube(s) and centrifuge at 10,000×g for 10 min at 4° C. […]

[6] = no induced cell death observed at 80 μM, read-out: IC50 values for the urea analogue reference examples
[7] = average of experiments, read-out: IC50 Average
[8] = single experiment 1, read-out: IC50 Exp1
[9] = single experiment 2, read-out: IC50 Exp2
[10] = MDA-MB-231 tumour in Balb-c nude mice
[11] = single experiment 3, read-out: IC50 Exp3
[12] = single experiment 4, read-out: IC50 Exp4

Structure (SMILES)	IC50 (MDA-MB-231 cells; [6]) [µM]	IC50 (MDA-MB-231 cells; [7]) [µM]	IC50 (MDA-MB-231 cells; [8]) [µM]	IC50 (MDA-MB-231 cells; [9]) [µM]	IC50 (MDA-MB-231 cells; [11]) [µM]	also measured
C#CCNC(=O)NCC(c1cccs1)c1c[nH]c2ccccc12 (stereo not shown) [A, reference compound]	> 80					
O=C(NCC1CC1)NCC(c1cccs1)c1c[nH]c2ccccc12 (stereo not shown) [B, reference compound]	> 80					
CCCNC(=O)NCC(c1ccsc1)c1c[nH]c2ccccc12 (stereo not shown) [C, reference compound]	> 80					
C=C(C)CNC(=O)NCC(c1ccsc1)c1c[nH]c2ccccc12 (stereo not shown) [D, reference compound]	> 80					
CCCCCCCNC(=S)NCC(c1cccs1)c1c[nH]c2ccccc12 (stereo not shown) [Example 1, 1-heptyl-3-[2-(1H-indol-3-yl)-2-(2-thienyl)ethyl]thiourea]		33	21.8	44.3		fold induction at 33 µM (cFOS [1]): 32.5; cFos expression compared to untreated MDA-MB-231 cells (cFOS [1]): significant increase
CCCCCCNC(=S)NCC(c1cccs1)c1c[nH]c2ccccc12 (stereo not shown) [Example 2, 1-hexyl-3-[2-(1H-indol-3-yl)-2-(2-thienyl)ethyl]thiourea]		37.9	36.7	39		cFOS expression in PC3 cells (cFOS [2]): significantly increased; cFOS expression in DU145 cells (cFOS [3]): significantly increased; DUSP1 expression in DU145 cells (DUSP1 [4]): significantly increased; behaviour on dilution with water (Solubility studies; diluted with water with polysorbate 80 (Tween 80) at a final concentration of 5%): remained in solution; concentration achieved in propylene glycol (PG) (Solubility studies; solubilised in PG): up to 5 mg/mL; cFOS expression in MDA-MB-231 cells (cFOS [1]; 4h, 4×IC50, in PEG/Tris HCl, p<0.01 to PEG/Tris HCl): significantly increased; MDA-MB-231 cell survival, in PEG/Tris HCl in comparison with in DMSO (MDA-MB-231 cells; MTT assay, four independent experiments, p<0.05): significantly decreased; DUSP1 expression in PC3 cells (DUSP1 [5]): significantly increased; Maximum % weight loss (MDA-MB-231 tumour; Balb-c nude mice): 0%; Growth delay (MDA-MB-231 tumour; [10]): 4.2 days; Median time RTV 2 (MDA-MB-231 tumour; [10]): 8.9 days
CCCCCNC(=S)NCC(c1cccs1)c1c[nH]c2ccccc12 (stereo not shown) [Example 3, 1-pentyl-3-[2-(1H-indol-3-yl)-2-(2-thienyl)ethyl]thiourea]		35.3	21.3	49.2		
S=C(NCC1CCCCC1)NCC(c1cccs1)c1c[nH]c2ccccc12 (stereo not shown) [Example 4, 1-cyclohexylmethyl-3-[2-(1H-indol-3-yl)-2-(2-thienyl)ethyl]thiourea]		53	65.8	40.3		
C=C(C)CNC(=S)NCC(c1cccs1)c1c[nH]c2ccccc12 (stereo not shown) [Example 5]		45.5	47.9	45	43.7	inhibition at 10 µM (HOXB4/PBX2 dimers): 39.2%; fold induction at 33 µM (cFOS [1]): 37.4; cFos expression compared to untreated MDA-MB-231 cells (cFOS [1]): significant increase
CNC(=S)NCC(c1cccs1)c1c[nH]c2ccccc12 (stereo not shown) [Example 6]		61.6	68	48	68.9	
CCNC(=S)NCC(c1cccs1)c1c[nH]c2ccccc12 (stereo not shown) [Example 7]		60.9	51.8	65.8	65	
CCCNC(=S)NCC(c1cccs1)c1c[nH]c2ccccc12 (stereo not shown) [Example 8]		51.9	42.7	48.6	56.1	IC50 (MDA-MB-231 cells; [12]): 59.9 µM
CCCCNC(=S)NCC(c1cccs1)c1c[nH]c2ccccc12 (stereo not shown) [Example 9]		41.2	40.9	37.3	29.8	IC50 (MDA-MB-231 cells; [12]): 41 µM; IC50 (MDA-MB-231 cells; single experiment 5, read-out: IC50 Exp5): 57.2 µM
